Paper PMC11899342, “Novel Triazeneindole Antibiotics: Synthesis and Hit-to-Lead Optimization” (International Journal of Molecular Sciences, 2025)
Converted amounts (≈) assume the structure as drawn. Where two headings read alike, the source gives them in different places.

Assays:
[1] = test system: MRSA clinical isolates; assay: MIC by broth microdilution against multidrug-resistant MRSA clinical isolates; assay type: cell-based, Staphylococcus aureus; conditions: for MIC: Staphylococcus aureus, MRSA, read-out: MIC
Method in brief: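 Multidrug-resistant clinical MRSA isolates, 1 × 10^6 CFU/mL suspension in Mueller Hinton broth, broth microdilution with compounds at final 1, 0.5, 0.25 and 0.125 mg/L. Incubated 18 h at 37 °C; MIC taken as lowest concentration with no visible growth, triplicate.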

[2] = test system: human embryonic fibroblasts (HEFs); assay: MTT cytotoxicity on human embryonic fibroblasts; assay type: cell-based; conditions: Homo sapiens, Fibroblast, 24 h, ND = non-toxic in tested concentrations (up to 50 mg/L)
Protocol: (§1) The primary screening of 22 substances was performed on human embryonic fibroblasts (HEFs). […] The HepG2 cell line was obtained from the American Type Culture Collection (ATCC cat. # HB-8065). The primary HEF cells (normal human embryonic fibroblasts) were derived from human embryonic stem cells. The cells were cultured in DMEM/F12 (1:1) medium containing 10% fetal bovine serum (Invitrogen, Carlsbad, CA, USA) at 37 °C and 5% CO2, according to standard mammalian tissue culture protocols and sterile technique. […] The incubation time with the substance was 24 h for all substances and cell lines. Cell detachment by trypsin, centrifugation, and counting in a hemocytometer were performed 16 h before the addition of the substance. For correct counting of the HepG2 cells, the cell suspension was passed through a syringe needle to get rid of cell aggregates. The cells were placed in the wells of a 96-well plate. The number of cells was selected according to the properties of the cell line and the final optical density in the experiment. Fibroblasts and hepatocytes were used in the amount of 10 thousand cells per well in 100 μL of DMEM/F12 medium supplemented with 10% fetal bovine serum. The substances were added to 100 µL of medium in the wells so that the final concentrations were 50, 25, 12.5, 6.25, 3.125, and 1.62 mg/L. The final well volume was 200 µL. The medium containing fetal bovine serum, without added substances, was used as a negative control. After 24 h, excessive amounts of medium were discarded. A total of 30 µL of MTT solution (5 mg/mL in PBS) was added to each well. After the precipitation of formazan crystals (3 h incubation), they were dissolved using 100 μL of dimethyl sulfoxide. The optical density (OD) was measured at 570 nm using a microplate reader (Eppendorf). For every condition, the cell viabilities were assessed in at least three independent experiments for every cell culture. Cell survival was calculated using the following formula:(OD of treated cells − OD blank)/(OD of control cells − OD blank) × 100%, where OD blank represents the OD values in wells without cells but with the addition of the MTT and DMSO solutions. The results were presented in the form of cytotoxicity curves, and the graphs were also plotted in a Microsoft Excel program; the calculation of the IC50 half-maximal inhibition concentration values was performed in a GraphPad Prism 6.0 (GraphPad Software Inc., San Diego, CA, USA) program, based on the equations of the cytotoxicity curves.

[3] = test system: HepG2 human liver carcinoma cells; assay: MTT cytotoxicity (hepatotoxicity) on HepG2; assay type: cell-based; conditions: Homo sapiens, HepG2, 24 h
Protocol: as §1

[4] = test system: MRSA; assay: Selectivity index (average IC50 on eukaryotic cells / average MIC on MRSA); assay type: cell-based, Staphylococcus aureus; conditions: average IC50 on eukaryotic cells divided by average MIC on MRSA
Protocol: The selectivity index was calculated for each compound as the average IC50 on eukaryotic cells divided by the average MIC on MRSA (Table 2).

[5] = Solubility in water by HPLC; assay type: physicochemical; conditions: water, kinetic from dmso stock
Protocol: The solubility of the compounds in water was assessed using HPLC analysis. Two 1.0 mg portions of the test compounds were dissolved in 10 μL of dimethyl sulfoxide; 1.0 mL of acetonitrile was added to one sample (standard), and 1.0 mL of water was added to the second sample (tested sample). Both vials were mixed in a shaker for 5 min, then centrifuged at 10,000 rpm for 5 min. The supernatants were collected and analyzed using Agilent 1290 Infinity (Agilent Technologies, Santa Clara, CA, USA) with a YMC-Triart C18 50 × 2.0 mm, 1.9 μm column. The concentration of the test compound in water was determined by comparing the peak areas of the standard (concentration 1.0 mg/mL) and the tested sample.

MIC Range Against 8 MRSA Strains ([1]; 8 multidrug-resistant MRSA clinical isolates, tested 0.125-1 mg/L): 1 µg/mL (≈ 3.17 µM) | MIC ([1]; Table S4, MRSA strain 1): 0.5 µg/mL (≈ 1.59 µM) | MIC ([1]; Table S4, MRSA strain 2): 1 µg/mL (≈ 3.17 µM) | MIC ([1]; Table S4, MRSA strain 3): 1 µg/mL (≈ 3.17 µM) | MIC ([1]; Table S4, MRSA strain 4): 1 µg/mL (≈ 3.17 µM) | MIC ([1]; Table S4, MRSA strain 5): 0.5 µg/mL (≈ 1.59 µM) | MIC ([1]; Table S4, MRSA strain 6): 0.5 µg/mL (≈ 1.59 µM) | MIC ([1]; Table S4, MRSA strain 7): 1 µg/mL (≈ 3.17 µM) | MIC ([1]; Table S4, MRSA strain 8): 1 µg/mL (≈ 3.17 µM) | MIC ([1]; Table S4, MRSA strain 9): 1 µg/mL (≈ 3.17 µM) | MIC ([1]; Table S4, MRSA strain 10): 1 µg/mL (≈ 3.17 µM) | MIC ([1]; Table S4, MRSA strain 12): 1 µg/mL (≈ 3.17 µM) | MIC ([1]; Table S4, MRSA strain 13): 1 µg/mL (≈ 3.17 µM) | MIC ([1]; Table S4, MRSA strain 14): 1 µg/mL (≈ 3.17 µM) | MIC ([1]; Table S4, MRSA strain 15): 1 µg/mL (≈ 3.17 µM) | MIC ([1]; Table S4, MRSA strain 16): 0.5 µg/mL (≈ 1.59 µM) | MIC ([1]; Table S4, MRSA strain 17): 1 µg/mL (≈ 3.17 µM) | MIC ([1]; Table S4, MRSA strain 18): 1 µg/mL (≈ 3.17 µM) | MIC ([1]; Table S4, MRSA strain 21): 1 µg/mL (≈ 3.17 µM) | MIC ([1]; Table S4, MRSA strain 23): 1 µg/mL (≈ 3.17 µM) | MIC ([1]; Table S4, MRSA strain 24): 1 µg/mL (≈ 3.17 µM) | MIC ([1]; Table S4, MRSA strain 25): 1 µg/mL (≈ 3.17 µM) | MIC ([1]; Table S4, MRSA strain 26): 0.5 µg/mL (≈ 1.59 µM) | MIC ([1]; Table S4, MRSA strain 27): 1 µg/mL (≈ 3.17 µM) | MIC ([1]; Table S4, MRSA strain 28): 1 µg/mL (≈ 3.17 µM) | MIC ([1]; Table S4, MRSA strain 29): 1 µg/mL (≈ 3.17 µM) | MIC ([1]; Table S4, MRSA strain 30): 1 µg/mL (≈ 3.17 µM) | MIC ([1]; Table S4, MRSA strain 31): 1 µg/mL (≈ 3.17 µM) | MIC ([1]; Table S4, MRSA strain 34): 1 µg/mL (≈ 3.17 µM) | MIC ([1]; Table S4, MRSA strain 35): 1 µg/mL (≈ 3.17 µM) | MIC ([1]; Table S4, MRSA strain 36): 1 µg/mL (≈ 3.17 µM) | MIC ([1]; Table S4, MRSA strain 40): 1 µg/mL (≈ 3.17 µM) | MIC ([1]; Table S4, MRSA strain 41): 1 µg/mL (≈ 3.17 µM) | MIC ([1]; Table S4, MRSA strain 42): 1 µg/mL (≈ 3.17 µM) | MIC ([1]; Table S4, MRSA strain 43): 1 µg/mL (≈ 3.17 µM) | MIC ([1]; Table S4, MRSA strain 44): 1 µg/mL (≈ 3.17 µM) | MIC ([1]; Table S4, MRSA strain 45): 1 µg/mL (≈ 3.17 µM) | MIC ([1]; Table S4, MRSA strain 46): 1 µg/mL (≈ 3.17 µM) | MIC ([1]; Table S4, MRSA strain 48): 1 µg/mL (≈ 3.17 µM) | MIC ([1]; Table S4, MRSA strain 49): 1 µg/mL (≈ 3.17 µM) | MIC ([1]; Table S4, MRSA strain 50): 1 µg/mL (≈ 3.17 µM) | MIC ([1]; Table S4, MRSA strain 51): 1 µg/mL (≈ 3.17 µM) | solubility at 5 min ([5]; read-out: Solubility in water, mass concentration): 90.5 µg/mL | solubility at 5 min ([5]; read-out: Solubility in water, molar concentration): 280 µM
SMILES: CCOC(=O)c1[nH]c2ccccc2c1/N=N/N1CCN(C)CC1 [BX-SI001, Ethyl (E)-3-((4-methylpiperazin-1-yl)diazenyl)-1H-indole-2-carboxylate]
IC50 [2]: 19 µg/mL (≈ 60.2 µM) | IC50 [3]: 22 µg/mL (≈ 69.8 µM) | Selectivity Index [4]: 19
